Patent US11952388B2, “Crystal form of tri-cycle compound and application thereof” (FUJIAN AKEYLINK BIOTECHNOLOGY CO., LTD., priority 2018, dated 2024)
pIC50: −log10 of the molar value.

Key:
[1] = system: proteins in CD-1 mouse plasma; test: Plasma protein binding rate (equilibrium dialysis); type: in vitro ADME, CD-1 mouse (mus musculus)
Procedure: (§1) Objectives of Experiment: to determine the binding rate of test compound to proteins in human and CD-1 mouse plasma
(§2) Experimental operation: 796 μL of blank plasma was taken from human and CD-1 mouse, and 4 μL of test compound working solution (400 μM) or warfarin working solution (400 μM) was added to make the final concentrations of both test compound and warfarin in the plasma sample 2 μM. The sample was mixed thoroughly. The final concentration of DMSO in the organic phase was 0.5%; 50 μt of plasma samples of test compound and warfarin was pipetted into the sample receiving plate (in triplicate), and immediately the corresponding volume of blank plasma or buffer was added to make the final volume of each sample 100 μL and the volume ratio of plasma:dialysis buffer 1:1. Then 400 μL of stop solution is added to these samples. These samples would be used as TO samples for determination of recovery and stability. […] All samples were analyzed by LC/MS/MS after protein precipitation, and the protein binding rate and recovery rate was calculated with the formula: % Unbound (unbound rate)=100*FC/TC, % Bound (bound rate)=100-% Unbound, % Recovery (recovery rate)=100*(FC+TC)/T0.

proteins in human plasma = test: Plasma protein binding rate (equilibrium dialysis); type: in vitro ADME
Procedure: as §1, §2

CYP2C19 = target: T1, CYP2C19 (Homo sapiens, UniProt P33261); test: Inhibition of human liver microsomal cytochrome P450 isoenzymes; type: in vitro ADME; conditions: human liver microsomes
T1 construct: from tissue; host or cells: human liver microsomes
Procedure: (§3) Objectives of experiment: To determine the inhibitory effect of the test compound on the activity of human liver microsomal cytochrome P450 isoenzymes (CYP1A2, CYP2C9, CYP2C19, CYP2D6 and CYP3A4). Experimental operation: First, the test compound (10 mM) was diluted in a gradient to prepare the working solutions (100× final concentration). The concentrations of the working solutions were 5, 1.5, 0.5, 0.15, 0.05, 0.015 and 0.005 mM. Meanwhile, the working solutions of mixture (5 in 1) of positive inhibitors of each P450 isoenzyme (CYP1A2, CYP2C9, CYP2C19, CYP2D6 and CYP3A4) and the specific substrate of the isoenzymes were also prepared; the human liver microsomes frozen in the refrigerator at −80° C. were unfrozen on ice. After the human liver microsomes were completely dissolved, they were diluted with PB to prepare a certain concentration (0.253 mg/mL) of working solution; 20 uL of the substrate mixture was added into the reaction plate (20 μl PB was added into the Blank well) as well as 158 μL of human liver microsome working solution, then the reaction plate was placed on ice and set aside; at this time, 2 μL of each concentration of test compound (N=1) and specific inhibitor (N=2) were added to the corresponding well, the group without inhibitor (test compound or positive inhibitor) was added with the corresponding organic solvent as a control sample (the test compound control sample was 1:1 DMSO:MeOH, and the positive control sample was 1:9 DMSO:MeOH); after pre-incubating in a 37° C. water bath for 10 min, the reaction plate was added with 20 μL of coenzyme factor (NADPH) solution and water bathed at 37° C. for 10 min; 400 μL of cold acetonitrile solution (internal standard was 200 ng/mL Tolbutamide and Labetalol) was added to terminate the reaction; the reaction plate was then placed on a shaker and shaken for 10 min, followed by centrifuging at 4,000 rpm for 20 min; 200 μL of supernatant was added to 100 μL of water for sample dilution; finally, the plate was sealed, shaken well, and subjected to LC/MS/MS detection.

CYP2D6 = target: T2, CYP2D6 (Homo sapiens, UniProt P10635); test: as above; type: in vitro ADME; conditions: human liver microsomes
T2 construct: from tissue; host or cells: human liver microsomes
Procedure: as §3

T1 sequence (P33261 whole entry): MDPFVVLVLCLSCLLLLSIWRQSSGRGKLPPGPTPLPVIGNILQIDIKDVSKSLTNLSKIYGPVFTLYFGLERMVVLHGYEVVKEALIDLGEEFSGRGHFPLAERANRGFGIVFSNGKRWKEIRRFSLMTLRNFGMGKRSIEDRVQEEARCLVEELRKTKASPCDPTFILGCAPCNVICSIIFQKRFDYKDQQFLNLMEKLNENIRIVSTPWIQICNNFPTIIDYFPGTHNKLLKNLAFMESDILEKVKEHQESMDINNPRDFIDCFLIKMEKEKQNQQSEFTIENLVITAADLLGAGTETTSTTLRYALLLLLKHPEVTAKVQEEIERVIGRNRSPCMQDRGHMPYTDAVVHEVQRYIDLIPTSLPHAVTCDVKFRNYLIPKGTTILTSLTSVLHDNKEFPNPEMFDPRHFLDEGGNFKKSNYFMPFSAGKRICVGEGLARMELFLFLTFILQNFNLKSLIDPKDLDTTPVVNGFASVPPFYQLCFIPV
T2 sequence (P10635 whole entry): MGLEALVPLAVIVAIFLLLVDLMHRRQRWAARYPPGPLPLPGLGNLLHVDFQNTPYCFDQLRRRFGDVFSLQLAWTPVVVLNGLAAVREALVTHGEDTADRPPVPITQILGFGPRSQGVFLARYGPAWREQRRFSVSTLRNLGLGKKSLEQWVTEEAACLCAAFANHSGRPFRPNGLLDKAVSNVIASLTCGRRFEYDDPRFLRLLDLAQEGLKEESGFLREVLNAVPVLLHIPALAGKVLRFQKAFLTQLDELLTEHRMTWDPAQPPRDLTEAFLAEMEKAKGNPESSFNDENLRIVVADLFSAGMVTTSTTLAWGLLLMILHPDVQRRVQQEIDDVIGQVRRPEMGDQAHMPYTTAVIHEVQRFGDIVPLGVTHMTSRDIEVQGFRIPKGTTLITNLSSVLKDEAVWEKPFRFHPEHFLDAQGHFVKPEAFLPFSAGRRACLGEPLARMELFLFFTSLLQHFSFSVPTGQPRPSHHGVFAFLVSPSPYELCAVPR

Compound: Cc1cc2n(c1)S(=O)(=O)c1ccc(C(=O)NCC[C@H]3COCCO3)cc1NC2=O [compound represented by formula (I)]
- binding rate to plasma proteins (conclusion in words) [1]: lower binding rate
- Binding rate of plasma protein ([1]; 2 μM): 94%
- binding rate to plasma proteins (conclusion in words) (proteins in human plasma): lower binding rate
- Binding rate of plasma protein (proteins in human plasma; 2 μM): 81%
- pIC50 (CYP2C19): < 4.30
- inhibitory effect on CYP2C19 (conclusion in words) (CYP2C19): no evident inhibitory effect
- pIC50 (CYP2D6): < 4.30
- inhibitory effect on CYP2D6 (conclusion in words) (CYP2D6): no evident inhibitory effect
